The values that follow come from patent EP0224257A1, “Stabilized benzimidazole derivatives” (SYNTEX (U.S.A.) INC., priority 1985, dated 1987).

This series in a line: Blood plasma levels after oral administration to dogs. Particulars: 10 mg/kg, compared with oxfendazole in commercially available form. It is filed as in vivo. On the procedure: Dogs were administered orally either amorphous or crystalline oxfendazole at a dose of 10 mg/kg.
Blood samples were drawn and analyzed before administration and on days 1, 2, 3, 7, 10 and 13 following administration. The area under the curve was calculated for plasma concentration vs time profile.

Turning to `COC(=O)Nc1nc2ccc([S+]([O-])c3ccccc3)cc2[nH]1` (stereo not shown) [amorphous oxfendazole, methyl 5-(phenylsulfinyl)-1H-benzimidazol-2-yl carbamate], the “plasma level of oxfendazole” value is “higher plasma level”.
